Laboratory results published in US20210387966A1, “2-AMINO-N-HETEROARYL-NICOTINAMIDES AS NAV1.8 INHIBITORS” (Merck Sharp & Dohme Corp., priority 2018, published 2021).

Molecular target: T1, human Nav1.8 channels (Homo sapiens, UniProt Q9Y5Y9)
T1 construct: expressed in transfected cells
Assay: Nav1.8 Qube automated patch-clamp assay
Assay type: cell-based
Conditions: human Nav1.8 stably expressed in HEK 293 cells; whole-cell voltage clamp, room temperature; resting or inactivated state not specified; read-out: IC50 values (nM) for Examples in the Nav1.8 Qube Assay
How it was run: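 Whole-cell patch clamp at room temperature on HEK293 cells stably expressing human Nav1.8. A 1 Hz train of ten 20 ms pulses to 10 mV from −90 mV holding, with −67 mV repolarization, was applied; first- and tenth-pulse peak currents gave resting and inactivated-state IC50s by Hill fitting.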

T1 sequence (Q9Y5Y9 whole entry): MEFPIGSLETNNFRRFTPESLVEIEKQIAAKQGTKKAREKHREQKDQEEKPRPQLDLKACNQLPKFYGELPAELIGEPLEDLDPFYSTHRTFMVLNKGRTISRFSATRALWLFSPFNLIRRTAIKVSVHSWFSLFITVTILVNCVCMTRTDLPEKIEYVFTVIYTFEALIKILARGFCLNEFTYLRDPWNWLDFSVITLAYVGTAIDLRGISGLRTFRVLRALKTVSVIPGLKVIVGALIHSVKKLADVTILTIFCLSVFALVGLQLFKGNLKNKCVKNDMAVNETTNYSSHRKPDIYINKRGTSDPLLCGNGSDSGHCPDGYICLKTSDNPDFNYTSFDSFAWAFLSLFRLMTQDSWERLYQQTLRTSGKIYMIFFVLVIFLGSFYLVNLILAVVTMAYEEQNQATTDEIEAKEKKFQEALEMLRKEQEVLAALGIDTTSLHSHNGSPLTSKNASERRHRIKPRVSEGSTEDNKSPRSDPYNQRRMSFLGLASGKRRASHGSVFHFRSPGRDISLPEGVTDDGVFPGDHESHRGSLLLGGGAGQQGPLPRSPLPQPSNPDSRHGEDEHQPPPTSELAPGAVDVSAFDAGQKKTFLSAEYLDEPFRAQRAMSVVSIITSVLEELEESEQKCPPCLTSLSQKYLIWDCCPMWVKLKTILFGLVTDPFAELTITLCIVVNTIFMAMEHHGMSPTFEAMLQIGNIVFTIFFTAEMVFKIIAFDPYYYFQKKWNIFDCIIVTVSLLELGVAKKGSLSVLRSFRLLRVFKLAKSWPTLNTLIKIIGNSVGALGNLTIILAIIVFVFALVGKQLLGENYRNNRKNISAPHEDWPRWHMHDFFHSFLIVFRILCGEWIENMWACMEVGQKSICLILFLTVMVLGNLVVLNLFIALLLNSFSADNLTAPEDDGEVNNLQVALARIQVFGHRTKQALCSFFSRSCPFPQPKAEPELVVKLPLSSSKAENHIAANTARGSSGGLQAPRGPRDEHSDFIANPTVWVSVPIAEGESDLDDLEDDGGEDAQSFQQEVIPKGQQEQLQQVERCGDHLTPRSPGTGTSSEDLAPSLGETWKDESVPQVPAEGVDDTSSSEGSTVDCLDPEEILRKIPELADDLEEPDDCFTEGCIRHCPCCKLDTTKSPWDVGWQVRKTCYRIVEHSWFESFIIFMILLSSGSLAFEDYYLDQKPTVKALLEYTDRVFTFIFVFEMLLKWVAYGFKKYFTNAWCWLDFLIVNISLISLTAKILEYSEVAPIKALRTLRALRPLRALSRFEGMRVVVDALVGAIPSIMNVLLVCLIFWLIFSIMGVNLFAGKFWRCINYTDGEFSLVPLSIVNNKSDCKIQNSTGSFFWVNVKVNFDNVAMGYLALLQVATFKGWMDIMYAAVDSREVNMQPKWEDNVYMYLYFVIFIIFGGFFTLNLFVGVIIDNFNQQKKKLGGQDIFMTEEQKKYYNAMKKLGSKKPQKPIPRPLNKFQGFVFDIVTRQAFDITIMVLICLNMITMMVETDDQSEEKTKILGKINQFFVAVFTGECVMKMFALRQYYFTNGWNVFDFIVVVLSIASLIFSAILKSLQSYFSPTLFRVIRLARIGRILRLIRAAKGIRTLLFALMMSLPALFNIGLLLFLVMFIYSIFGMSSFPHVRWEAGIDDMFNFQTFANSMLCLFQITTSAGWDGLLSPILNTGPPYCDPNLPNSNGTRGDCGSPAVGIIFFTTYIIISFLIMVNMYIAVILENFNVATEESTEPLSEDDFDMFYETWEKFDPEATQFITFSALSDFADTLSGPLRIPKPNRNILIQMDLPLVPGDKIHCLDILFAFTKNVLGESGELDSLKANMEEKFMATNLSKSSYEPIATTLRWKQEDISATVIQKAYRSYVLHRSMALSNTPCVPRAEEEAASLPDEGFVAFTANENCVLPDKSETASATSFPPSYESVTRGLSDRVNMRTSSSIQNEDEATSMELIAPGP

Structure (SMILES)	IC50 [nM]
NS(=O)(=O)c1cc(NC(=O)c2cc(C(F)(F)F)cnc2N2CCC3C(C2)C3(F)F)ccn1 (single isomer, unassigned) [Example 70, 2-((1R,6R or 1S,6S)-7,7-difluoro-3-azabicyclo[4.1.0]heptan-3-yl)-N-(2-sulfamoylpyridin-4-yl)-5-(trifluoromethyl)nicotinamide]	41
NS(=O)(=O)c1cc(NC(=O)c2cc(C(F)(F)F)cnc2N2CC3CCC3(C(F)(F)F)C2)ccn1 (single isomer, unassigned) [Example 59, N-(2-sulfamoyl-4-pyridyl)-5-(trifluoromethyl)-2-[(1R,5R or 1S,5S)-1-(trifluoromethyl)-3-azabicyclo[3.2.0]heptan-3-yl]pyridine-3-carboxamide]	116
NS(=O)(=O)c1cc(NC(=O)c2cc(C(F)(F)F)cnc2N2CCC3OCCC32)ccn1 (stereo not drawn) [Example 96, 2-(2,3,3,a,5,6,6a-hexahydrofuro[3,2-b]pyrrol-4-yl)-N-(2-sulfamoyl-4-pyridyl)-5-(trifluoromethyl)pyridine-3-carboxamide]	1620
Cc1nc(N2CCCCC2)c(C(=O)Nc2cncc(S(N)(=O)=O)c2)c(C)c1Cl [Example 191, 5-chloro-4,6-dimethyl-2-(1-piperidyl)-N-(5-sulfamoyl-3-pyridyl)pyridine-3-carboxamide]	124
N#Cc1cc(NC(=O)c2cc(C(F)(F)F)cnc2N2C[C@H]3CC[C@H]3C2)ccn1 [Example 153, 2-[(1R,5S)-3-azabicyclo[3.2.0]heptan-3-yl]-N-(2-cyano-4-pyridyl)-5-(tri-fluoromethyl)pyridine-3-carboxamide]	310
Cc1nc(N2CCC(F)(F)CC2)c(C(=O)Nc2ccnc(S(N)(=O)=O)c2)cc1C1CC1 [Example 14, 5-cyclopropyl-2-(4,4-difluoropiperidin-1-yl)-6-methyl-N-(2-sulfamoylpyridin-4-yl)nicotinamide]	45
NS(=O)(=O)c1cc(NC(=O)c2cc(N3CCCCC3)cnc2N2CCC(F)(F)CC2)ccn1 [Example 206, 2-(4,4-difluoropiperidin-1-yl)-5-(piperidin-1-yl)-N-(2-sulfamoylpyridin-4-yl)nicotinamide]	363
O=C(Nc1cc[nH]c(=O)c1)c1cc(C(F)(F)F)cnc1N1CCCC(F)(F)CC1 [Example 210, 2-(4,4-difluoroazepan-1-yl)-N-(2-oxo-1,2-dihydropyridin-4-yl)-5-(trifluoromethyl)-nicotinamide]	86
NS(=O)(=O)c1cc(NC(=O)c2cc(C(F)(F)F)cnc2N2CCc3sccc3C2)ccn1 [Example 79, 2-(6,7-dihydro-4H-thieno[3.2-c]pyridin-5-yl)-N-(2-sulfamoyl-4-pyridyl)-5-(trifluoromethyl)pyridin-3-carboxamide]	21
CC1CCCN(c2ncc(C(F)(F)F)cc2C(=O)Nc2ccnc(S(N)(=O)=O)c2)C1 (single isomer, unassigned) [Example 56, (S or R)-2-(3-methylpiperidin-1-yl)-N-(2-sulfamoylpyridin-4-yl)-5-(trifluoromethyl)nicotinamide]	9.1
O=C(Nc1cncc(C(F)(F)F)c1)c1cc(C(F)(F)F)cnc1N1CCCCCC1 [Example 200, 2-(azepan-1-yl)-5-(trifluoromethyl)-N-[5-(trifluoromethyl)-3-pyridyl]pyridine-3-carboxamide]	9670
CC1(O)CCCN(c2ncc(C(F)(F)F)cc2C(=O)Nc2ccnc(S(N)(=O)=O)c2)C1 (stereo not drawn) [Example 112, 2-(3-hydroxy-3-methyl-1-piperidyl)-N-(2-sulfamoyl-4-pyridyl)-5-(trifluoromethyl)pyridine-3-carboxamide]	8410
NS(=O)(=O)c1cc(NC(=O)c2cc(C(F)(F)F)cnc2N2CCC(C(F)(F)F)CC2)ccn1 [Example 82, N-(2-sulfamoyl-4-pyridyl)-5-(trifluoromethyl)-2-[4-(trifluoromethyl)-1-piperidyl]pyridine-3-carboxamide]	54
Cc1nc(N2CCCC(F)(F)CC2)c(C(=O)Nc2cnn(S(=O)(=O)CCN)c2)cc1Cl [Example 33, N-{1-[(2-aminoethyl)sulfonyl]-1H-pyrazol-4-yl}-5-chloro-2-(4,4-difluoroazepan-1-yl)-6-methylpyridine-3-carboxamide]	35

The remaining compounds from weak to strong by IC50, led by results:

IC50 [nM]	Structure (SMILES)
5430	O=C(O)c1cc(NC(=O)c2cc(C(F)(F)F)cnc2N2CCC(F)(F)CC2)ccn1 [Example 4, 4-(2-(4,4-difluoropiperidin-1-yl)-5-(trifluoromethyl)nicotinamido)picolinic acid]
4630	NS(=O)(=O)c1cc(NC(=O)c2cc(C(F)(F)F)cnc2N2CCN(CC(F)(F)F)CC2)ccn1 [Example 100, N-(2-sulfamoyl-4-pyridyl)-2-[4-(2,2,2-trifluoroethyl)piperazin-1-yl]-5-(trifluoromethyl)pyridine-3-carboxamide]
707	NS(=O)(=O)c1cc(NC(=O)c2cc(C(F)(F)F)cnc2N2CC(C(F)(F)F)C2)ccn1 [Example 93, N-(2-sulfamoyl-4-pyridyl)-5-(trifluoromethyl)-2-[3-(trifluoromethyl)azetidin-1-yl]pyridine-3-carboxamide]
347	Cc1nc(N2CCCC(F)(F)CC2)c(C(=O)N(C)c2ccnc(S(N)(=O)=O)c2)c(C)c1Cl [Example 214, 5-chloro-2-(4,4-difluoroazepan-1-yl)-N,4,6-trimethyl-N-(2-sulfamoylpyridin-4-yl)nicotinamide]
294	NS(=O)(=O)c1cc(NC(=O)c2cc(C(F)(F)F)cnc2N2Cc3cccc(OC(F)(F)F)c3C2)ccn1 [Example 90, N-(2-sulfamoyl-4-pyridyl)-2-[4-(trifluoromethoxy)isoindolin-2-yl]-5-(trifluoromethyl)pyridine-3-carboxamide]
172	NS(=O)(=O)c1cc(NC(=O)c2cc(C(F)(F)F)cnc2N2CCn3c(Cc4ccccc4)cnc3C2)ccn1 [Example 86, 2-(3-benzyl-6,8-dihydro-5H-imidazo[1,2-a]pyrazin-7-yl)-N-(2-sulfamoyl-4-pyridyl)-5-(trifluoromethyl)pyridine-3-carboxamide]
89	CS(=O)(=O)c1cc(NC(=O)c2cc(C(F)(F)F)cnc2N2C[C@@H]3[C@H](C2)C(F)(F)C3(F)F)ccn1 [Example 151, N-(2-methylsulfonyl-4-pyridyl)-2-[(1R,5S)-6,6,7,7-tetrafluoro-3-azabicyclo[3.2.0]heptan-3-yl]-5-(trifluoro-methyl)pyridine-3-carboxamide]
80	Cc1nc(N2CCCCCC2)c(C(=O)Nc2cc[nH]c(=O)c2)c(C)c1Cl [Example 213, 2-(azepan-1-yl)-5-chloro-4,6-dimethyl-N-(2-oxo-1,2-dihydropyridin-4-yl)nicotinamide]
28	CC1CN(c2ncc(C(F)(F)F)cc2C(=O)Nc2ccnc(S(N)(=O)=O)c2)CCC(C(F)(F)F)O1 (single isomer, unassigned) [Example 123, 2-((2S,7S or 2R,7R)-2-methyl-7-(trifluoromethyl)-1,4-oxazepan-4-yl)-N-(2-sulfamoylpyridin-4-yl)-5-(trifluoromethyl)nicotinamide]
4.3	Cc1nc(N2CCCC(F)(F)CC2)c(C(=O)Nc2cnn(S(C)(=O)=O)c2)c(C)c1Cl [Example 32, 5-chloro-2-(4,4-difluoroazepan-1-yl)-4,6-dimethyl-N-[1-(methylsulfonyl)-1H-pyrazol-4-yl]pyridine-3-carboxamide]
